Reference: US20120321694A1, “COMPOSITIONS AND USES” (priority 2010, published 2012)
Where no end group is shown, it is not given here.

Key:
APPSwe/PS1 mice = assay: T-water maze; assay type: in vivo; conditions: for T-water maze, spatial memory: Example 21, twelve weekly injections, 3D MPL 50 μg, CRX527 20 μg, CRX601 20 μg i.p., AS01B 1/10th human dose i.m., vs non treated, FIG. 24
Procedure: Five groups of APPSwe/PS1 mice received one a week for a period of 12 weeks the following treatment: • Gr1: APPSwe/PS1+NaCl 0.9% n(=20), i.p. injections • Gr4: APPSwe/PS1+CRX527 (20 μg/mouse, 130 μl, n=10), i.p. injections • Gr5: APPSwe/PS1+CRX601 (20 μg/mouse, 130 μl, n=10), i.p. injections • Gr6: APPSwe/PS1+3D MPL (50 μg/mouse, 130 μl, n=10), i.p. injections • Gr8 APPSwe/PS1+AS15 ( 1/10th of human dose, 50 μl, n=10), i.m. injections • Gr9: APPSwe/PS1+AS01B ( 1/10th of human dose, 50 μl, n=10), i.m. injections
Mice were tested during the “light on” phase of the day. Behavioral experimenter was blinded to the genetic and treatment status of animals. To assess hippocampal-dependent spatial learning and memory, mice were trained in the T-water maze task. In this paradigm, we evaluate the mouse's ability to remember the spatial location of submerged platform. The T-maze apparatus (length of stem, 64 cm; length of arms, 30 cm; width, 12 cm; height of walls, 16 cm) was made of clear fiberglass and filled with water (23±1° C.) at a height of 12 cm. A platform (11×11 cm) was placed at the end of the target arm and was submerged 1 cm below the surface. The acquisition phase allows to evaluate animals for left-right spatial learning. During the first two trials, platforms were placed on each arms of the maze to test the spontaneous turning preference of the mouse. After these two trials, the least chosen arm was reinforced by the escape platform. The mice were placed in the stem of the T-maze and choose to swim either left or right until they found the submerged platform and escape to it, to a maximum of 60 s. After reaching the platform, the mice remained on it for 20 s and then were immediately placed back in the maze. […] Repeated trials were presented on the same day up to a maximum of 48 trials. A rest period of at least 10-15 min intervened between each block of 10 trials. A mouse was considered to have learned the task when it made no errors in a block of five consecutive trials. The reversal learning phase was then conducted 48 h later. During this phase, the same protocol was repeated, except that the mice were trained to find the escape platform on the opposite side to that on which they had learned on acquisition phase. The number of trials to reach the criterion (five of five correct choices made on consecutive trials) was measured as well as the latency to find the escape platform.

[1] = system: Lineage- CD11b+ monocytes in peripheral blood; assay: Monocyte analysis and counting after adjuvant injection in mice; assay type: in vivo, C57BL/6 mice
Procedure: (§1) 24-Hours after injection of the TLR adjuvants, peripheral blood was drawn from C57BL/6 mice via cardiac puncture with lithium-heparin as anticoagulant. Red blood cell lysis was performed twice on pooled blood with Ammonium Chloride-based Buffer (Sigma, Steinheim, Germany) and cells were counted with the EasyCount™ System (Immunicon). […] Cells were finally washed three times and fixed for 15 min. with a 2% paraformaldehyde solution in PBS. Fluorescence minus one (FMO) controls were always included in the assays for fluorescent compensation setting. Samples were acquired on a flow cytometer (BD FACSCanto II) and data analyzed with the FACSDiva software (BD Biosciences). Monocytes were identified by their Side/Forward scatter properties and gated as CD3-/CD45R/B220-/Ly-6G-/NK1.1-(Lineage-)/CD11b+ cells. CD11b+ monocyte frequency was reported as a percentage of the total cells excluding debris.
as §1, with “24 hours” for “24-Hours”, “each immunomodulator,” for “the TLR adjuvants,”, “min” for “min.”, “monocytes” for “monocyte”
(§2) Cells were finally washed twice and fixed for 15 min. with a 2% paraformaldehyde solution in PBS. FMOs controls were always included in the assays. Samples were acquired on a flow cytometer (BD FACSCanto II) and data analyzed with the FACSDiva software (BD Biosciences). Monocytes were identified and counted by their Side/Forward scatter properties, excluding debris and gated as CD3-/CD45R/B220-/Ly-6G-/NK1.1-(Lineage-)/CD11b+ cells.

[2] = system: CD11b+ peripheral blood monocytes; assay: Ex vivo uptake assay of Aβ1-42 by peripheral blood monocytes; assay type: cell-based, C57BL/6 mice
Procedure: (§3) Red blood cell lysis was performed twice on pooled blood with Ammonium Chloride-based Buffer (Sigma, Steinheim, Germany) and cells were counted with the EasyCount™ System (Immunicon).
(§4) Cells were finally washed twice and fixed for 15 min. with a 2% paraformaldehyde solution in PBS. FMOs controls were always included in the assays.
as §3

[3] = system: CD11b+ peripheral blood monocytes; assay: In vivo uptake assay of Aβ42 after immunization or passive immunotherapy; set-up: species or system C57BL/6 mice; conditions: FIG. 22
Procedure: as §4, §2

[4] = system: human microglial cell line CHME; assay: Phagocytosis of Aβ1-42 by CHME microglial cell line; assay type: cell-based; conditions: FIG. 18
Procedure: Phagocytosis of beta-amyloid 1-42 peptide by the human microglial cell line CHME was observed after the addition of TLR2 agonist containing adjuvants Protollin and Pam3CysLip peptide. […] The synthetic peptide sequence of the Pam3Cys Lip peptide is described herein: Pam3Cys—SQ EPAAPAAEAT PAAEAP. Protollin was used at concentration 1 ug per ml based on the LPS content from Shigella flexneri. Pam3Cys lip peptide was used at concentration of 5 ug per ml of the pure tri-palmitoylated peptide.
Additionally, cells were imaged using 42 HiLyte 488 Fluo (Anaspec, Inc.) at 2 ug per ml in DMEM complete media (Invitrogen). Lysotracker red staining was performed and slides were mounted and co-stained with DAPI to show the nucleus (blue). […] Lysotracker red reagent was purchased from Invitrogen and used as manufacturer recommendations.

CCCCCCCCCCC[C@H](CC(=O)N[C@H]1[C@H](OC[C@H](NC(=O)C[C@@H](CCCCCCCCCCC)OC(=O)CCCCCCCCC)C(=O)O)O[C@H](CO)[C@@H](OP(=O)(O)O)[C@@H]1OC(=O)C[C@@H](CCCCCCCCCCC)OC(=O)CCCCCCCCC)OC(=O)CCCCCCCCC [CRX527]
T-water maze, spatial memory (APPSwe/PS1 mice): spatial memory improvement
T-water maze, spatial memory (APPSwe/PS1 mice; listed as CRX 527): significant improvements in behaviour

QS21 [reference compound]
number of monocytes, of total peripheral white blood cells ([1]; 24 hrs after single i.m. injection (5 μg QS21), FIG. 19A): 9.1%
activated Ly6C+ monocytes ([1]; 24 hrs after single i.m. injection (5 μg QS21), FIG. 19B): 75%
ex vivo Aβ42 uptake by peripheral blood monocytes ([2]; i.m. injection, 24 hrs, compared to PBS, QS21 (5 ug), liposomal MPL (5 ug) or MPL (5 ug), FIG. 20): does not promote Aβ uptake

CCCCCCCCCCC[C@H](CC(=O)N[C@H]1[C@H](OC[C@H](NC(=O)C[C@@H](CCCCCCCCCCC)OCCCCCCCCCC)C(=O)O)O[C@H](CO)[C@@H](OP(=O)(O)O)[C@@H]1OC(=O)C[C@@H](CCCCCCCCCCC)OCCCCCCCCCC)OCCCCCCCCCC [CRX601]
dose of maximum monocyte response ([1]; single i.m., 0.2-20 ug/mouse, FIG. 12): 10 µg
dose enough to trigger an increase of the monocyte count ([1]; single i.m., 24 hrs, compared to PBS, FIG. 12): 1 µg
effect on monocyte count at 20 μg dose ([1]; single i.m., FIG. 12): down modulated
ex vivo uptake of Aβ42 by peripheral blood monocytes ([2]; i.m. AS01B mouse full dose (5 ug per mouse) or CRX601 2 μg, vs PBS group, FIG. 14): uptake an higher amount of Aβ42
antibody-mediated Aβ uptake in peripheral blood monocytes ([3]; CRX601 at 20 ug when combined with AS03 emulsion): partially quenched
antibody-mediated Aβ uptake in peripheral blood monocytes ([3]; CRX601 at 20 ug, single i.m., plus 15 ug 2E7): triggers highest Aβ uptake
antibody-mediated Aβ uptake in peripheral blood monocytes ([3]; single i.m. injection of different doses plus 15 ug 2E7, Aβ Fluor i.v. 24 hr later): Dose-response observed
T-water maze, spatial memory (APPSwe/PS1 mice): spatial memory improvement
T-water maze, spatial memory (APPSwe/PS1 mice; listed as CRX 601): significant improvements in behaviour
T-water maze, cognitive functions (APPSwe/PS1 mice; Example 22, i.m., 12× weekly from 3 months old, CRX601 2 μg, CRX601 2 ug in AS03, 3D MPL 5 ug, AS01B 1/10 human dose, vs PBS, unpaired t-tests, FIG. 27A): significant improvement of their cognitive functions

Pam3Cys—SQ EPAAPAAEAT PAAEAP (Pam3Cys-SQEPAAPAAEATPAAEAP) [Pam3CysLip peptide, TLR2 agonist, tri-palmitoylated peptide from Neisseria meningitidis strain 8047]
phagocytosis of beta-amyloid 1-42 peptide ([4]; 5 ug per ml, pre-incubation 18 hrs): 86 % of cells
amyloid phagocytic activity ([4]; Pam3CysLip peptide 5 ug per ml, Protollin 1 ug per ml (LPS content), compared to PBS): higher amyloid phagocytic activity
